Like-named read-outs stand apart in the source and are kept apart here.
Legend:
IGROV = assay: SRB colorimetric cell growth inhibition assay, IGROV; type: cell-based
How it was run: (§1)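 Sulforhodamine B colorimetric readout measured cell growth and viability after continuous compound exposure of human cancer cell lines in 96-well plates. Triplicate wells gave mean ± SD, from which growth inhibition (GI), cytostatic total growth inhibition (TGI) and cytotoxic cell killing (LC) were calculated.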

human topoisomerase I = target: T1, human topoisomerase I (Homo sapiens, UniProt P11387); assay: Topoisomerase I DNA relaxation assay (supercoiled plasmid DNA); type: biochemical; details: for stimulation of DNA cleavage by topoisomerase I / inhibition of topoisomerase I (nicked DNA band) in DNA relaxation assay: supercoiled plasmid DNA, each compound tested at 1 μM, agarose gel with ethidium bromide
T1 sequence (P11387 1-765): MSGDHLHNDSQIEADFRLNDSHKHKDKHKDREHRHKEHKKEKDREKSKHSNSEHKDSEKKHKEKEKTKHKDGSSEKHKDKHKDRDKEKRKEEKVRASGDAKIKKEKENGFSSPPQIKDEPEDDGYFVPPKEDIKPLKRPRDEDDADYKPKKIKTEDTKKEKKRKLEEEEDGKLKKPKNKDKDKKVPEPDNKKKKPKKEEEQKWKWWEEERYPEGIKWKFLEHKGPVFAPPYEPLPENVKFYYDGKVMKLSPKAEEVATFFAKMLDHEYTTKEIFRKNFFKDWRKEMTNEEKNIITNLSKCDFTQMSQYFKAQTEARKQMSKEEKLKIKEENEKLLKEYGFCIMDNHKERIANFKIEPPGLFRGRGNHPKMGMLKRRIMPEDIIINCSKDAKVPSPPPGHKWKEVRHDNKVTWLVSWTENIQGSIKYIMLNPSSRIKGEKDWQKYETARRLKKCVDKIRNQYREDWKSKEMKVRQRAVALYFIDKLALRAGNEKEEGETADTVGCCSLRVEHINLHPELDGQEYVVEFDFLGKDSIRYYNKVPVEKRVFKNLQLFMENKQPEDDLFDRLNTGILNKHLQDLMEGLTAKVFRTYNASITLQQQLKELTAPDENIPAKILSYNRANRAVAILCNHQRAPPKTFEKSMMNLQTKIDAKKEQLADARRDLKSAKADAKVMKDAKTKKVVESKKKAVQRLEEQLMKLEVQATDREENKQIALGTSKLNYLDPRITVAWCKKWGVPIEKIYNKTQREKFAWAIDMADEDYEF
How it was run: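 Test compounds (1 μM each) were present during topoisomerase I relaxation of supercoiled plasmid DNA. Relaxation was assessed on ethidium bromide-stained agarose gels.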

LNCaP = assay: SRB colorimetric cell growth inhibition assay, LNCaP; type: cell-based; details: Homo sapiens, LNCaP, LN-caP; for GI50: GI=growth inhibition, read-out: GI50 LN-caP; for CC50: cell killing (cytotoxic effect), read-out: LC50 LN-caP; for IC (TGI): total growth inhibition (cytostatic effect), read-out: TGI LN-caP
How it was run: as §1

SK-MEL-28 = assay: SRB colorimetric cell growth inhibition assay, SK-MEL-28; type: cell-based; details: Homo sapiens, SK-MEL-28, MEL-28; for GI50: GI=growth inhibition, read-out: GI50 MEL-28; for CC50: cell killing (cytotoxic effect), read-out: LC50 MEL-28; for IC (TGI): total growth inhibition (cytostatic effect), read-out: TGI MEL-28
How it was run: as §1

PANC-1 = assay: SRB colorimetric cell growth inhibition assay, PANC-1; type: cell-based; details: Homo sapiens; for CC50: read-out: LC50 PANC-1; for IC (TGI): read-out: TGI PANC-1; for GI50: GI=growth inhibition, read-out: GI50 PANC-1
How it was run: as §1

DU-145 = assay: SRB colorimetric cell growth inhibition assay, DU-145; type: cell-based; details: Homo sapiens; for CC50: cell killing (cytotoxic effect), read-out: LC50 DU-145; for GI50: GI=growth inhibition, read-out: GI50 DU-145; for IC (TGI): total growth inhibition (cytostatic effect), read-out: TGI DU-145
How it was run: as §1

A-549 = assay: SRB colorimetric cell growth inhibition assay, A-549; type: cell-based; details: Homo sapiens, A549, A-549; for GI50: GI=growth inhibition, read-out: GI50 A-549; for CC50: read-out: LC50 A-549; for IC (TGI): read-out: TGI A-549
How it was run: as §1

SK-BR-3 = assay: SRB colorimetric cell growth inhibition assay, SK-BR-3; type: cell-based; details: Homo sapiens; for CC50: cell killing (cytotoxic effect), read-out: LC50 SK-BR-3; for GI50: GI=growth inhibition, read-out: GI50 SK-BR-3; for IC (TGI): total growth inhibition (cytostatic effect), read-out: TGI SK-BR-3
How it was run: as §1

IGROV-ET = assay: SRB colorimetric cell growth inhibition assay, IGROV-ET (ET-743 resistant); type: cell-based; details: Homo sapiens, IGROV-ET; for GI50: GI=growth inhibition, read-out: GI50 IGROV-ET; for CC50: cell killing (cytotoxic effect), read-out: LC50 IGROV-ET; for IC (TGI): total growth inhibition (cytostatic effect), read-out: TGI IGROV-ET
How it was run: as §1

LoVo-Dox = assay: SRB colorimetric cell growth inhibition assay, LoVo-Dox (MDR); type: cell-based; details: Homo sapiens, LOVO-DOX; for GI50: GI=growth inhibition, read-out: GI50 LOVO-DOX; for CC50: read-out: LC50 LOVO-DOX; for IC (TGI): read-out: TGI LOVO-DOX
How it was run: as §1

K-562 = assay: SRB colorimetric cell growth inhibition assay, K-562; type: cell-based; details: Homo sapiens, K562, K-562; for GI50: GI=growth inhibition, read-out: GI50 K-562; for CC50: read-out: LC50 K-562; for IC (TGI): read-out: TGI K-562
How it was run: as §1

LoVo = assay: SRB colorimetric cell growth inhibition assay, LoVo; type: cell-based; details: Homo sapiens; for CC50: read-out: LC50 LOVO; for GI50: GI=growth inhibition, read-out: GI50 LOVO; for IC (TGI): read-out: TGI LOVO
How it was run: as §1

HT-29 = assay: SRB colorimetric cell growth inhibition assay, HT-29; type: cell-based; details: Homo sapiens; for CC50: read-out: LC50 HT-29; for GI50: GI=growth inhibition, read-out: GI50 HT-29; for IC (TGI): read-out: TGI HT-29
How it was run: as §1

[1] = Homo sapiens, IGROV; cell killing (cytotoxic effect); read-out: LC50 IGROV
[2] = LC=cell killing (cytotoxic effect)
[3] = TGI=total growth inhibition (cytostatic effect)
[4] = cell killing (cytotoxic effect)
[5] = total growth inhibition (cytostatic effect)

COc1cc(-c2c3n(c4c(=O)oc5cc(OC(=O)[C@H](NC(=O)OC(C)(C)C)C(C)C)c(OC)cc5c24)CCc2cc(OC(=O)[C@H](NC(=O)OC(C)(C)C)C(C)C)c(OC)cc2-3)ccc1OC(=O)[C@H](NC(=O)OC(C)(C)C)C(C)C [Compound 34]
CC50 (IGROV; [1]): 8.74 µM
GI50 (IGROV; Homo sapiens; IGROV; GI=growth inhibition; read-out: GI50 IGROV): 0.307 µM
IC (TGI) (IGROV; Homo sapiens; IGROV; total growth inhibition (cytostatic effect); read-out: TGI IGROV): 2.11 µM
stimulation of DNA cleavage by topoisomerase I / inhibition of topoisomerase I (nicked DNA band) in DNA relaxation assay (human topoisomerase I): No effect
GI50 (LNCaP): 0.461 µM
CC50 (LNCaP): 4.11 µM
IC (TGI) (LNCaP): 1.57 µM
GI50 (SK-MEL-28): 1.36 µM
CC50 (SK-MEL-28): 5.58 µM
IC (TGI) (SK-MEL-28): 2.76 µM
CC50 (PANC-1; PANC-1, PANC-1, LC=cell killing (cytotoxic effect)): 9.1 µM
IC (TGI) (PANC-1; PANC-1, PANC-1, TGI=total growth inhibition (cytostatic effect)): 0.992 µM
GI50 (PANC-1; PANC-1): 0.301 µM
CC50 (DU-145; DU-145, DU-145): 6.5 µM
GI50 (DU-145; DU-145): 0.196 µM
IC (TGI) (DU-145; DU-145): 0.588 µM
GI50 (A-549): 1.47 µM
CC50 (A-549; [2]): 9.1 µM
IC (TGI) (A-549; [3]): 3.71 µM
CC50 (SK-BR-3; SK-BR-3, SK-BR-3): 8.95 µM
GI50 (SK-BR-3; SK-BR-3): 1.18 µM
IC (TGI) (SK-BR-3; SK-BR-3): 3.25 µM
GI50 (IGROV-ET): 2.07 µM
CC50 (IGROV-ET): 9.1 µM
IC (TGI) (IGROV-ET): 4.63 µM
GI50 (LoVo-Dox): 9.1 µM
CC50 (LoVo-Dox; [2]): 9.1 µM
IC (TGI) (LoVo-Dox; [3]): 9.1 µM
GI50 (K-562): 1.04 µM
CC50 (K-562; [2]): 6.62 µM
IC (TGI) (K-562; [3]): 2.61 µM
CC50 (LoVo; LoVo, LC=cell killing (cytotoxic effect)): 9.1 µM
GI50 (LoVo; LOVO): 0.84 µM
IC (TGI) (LoVo; LOVO, TGI=total growth inhibition (cytostatic effect)): 4.02 µM
CC50 (HT-29; HT-29, HT-29, LC=cell killing (cytotoxic effect)): 9.1 µM
GI50 (HT-29; HT-29): 1.16 µM
IC (TGI) (HT-29; HT-29, TGI=total growth inhibition (cytostatic effect)): 5.39 µM

COc1cc(-c2c3c4cc(OC)c(OC(=O)CCCCCN)cc4oc(=O)c3n3ccc4cc(OC(=O)CCCCCN)c(OC)cc4c23)ccc1OC(=O)CCCCCN [Compound 169]
GI50 (IGROV; Homo sapiens, IGROV; GI=growth inhibition; read-out: GI50 IGROV): 0.0471 µM
CC50 (IGROV; [1]): 10.5 µM
IC (TGI) (IGROV; Homo sapiens, IGROV; total growth inhibition (cytostatic effect); read-out: TGI IGROV): 1.92 µM
stimulation of DNA cleavage by topoisomerase I, concentration-dependent measurements compared with LAM-D (3) (human topoisomerase I; dose-response analysis): equally efficient to (3)
stimulation of DNA cleavage by topoisomerase I / inhibition of topoisomerase I (nicked DNA band) in DNA relaxation assay (human topoisomerase I): inhibit topoisomerase I
GI50 (LNCaP): 0.0373 µM
CC50 (LNCaP): 1.24 µM
IC (TGI) (LNCaP): 0.183 µM
GI50 (SK-MEL-28): 0.0464 µM
CC50 (SK-MEL-28): 10.5 µM
IC (TGI) (SK-MEL-28): 0.529 µM
GI50 (PANC-1; PANC-1, PANC-1): 0.152 µM
CC50 (PANC-1; PANC-1, PANC-1, cell killing (cytotoxic effect)): 10.5 µM
IC (TGI) (PANC-1; PANC-1, PANC-1, total growth inhibition (cytostatic effect)): 10.5 µM
GI50 (DU-145; DU-145, DU-145): 0.0151 µM
CC50 (DU-145; DU-145, DU-145): 0.0105 µM
IC (TGI) (DU-145; DU-145, DU-145): 0.0901 µM
GI50 (A-549): 0.0646 µM
CC50 (A-549; [4]): 9.74 µM
IC (TGI) (A-549; [5]): 1.14 µM
GI50 (SK-BR-3; SK-BR-3, SK-BR-3): 0.0387 µM
CC50 (SK-BR-3; SK-BR-3, SK-BR-3): 10.5 µM
IC (TGI) (SK-BR-3; SK-BR-3, SK-BR-3): 0.132 µM
GI50 (IGROV-ET): 0.0418 µM
CC50 (IGROV-ET): 10.5 µM
IC (TGI) (IGROV-ET): 0.301 µM
GI50 (LoVo-Dox): 0.258 µM
CC50 (LoVo-Dox; [4]): 1050 µM
IC (TGI) (LoVo-Dox; [5]): 0.922 µM
GI50 (K-562): 0.068 µM
CC50 (K-562; [4]): 10.5 µM
IC (TGI) (K-562; [5]): 3.21 µM
GI50 (LoVo; LoVo): 0.159 µM
CC50 (LoVo; LoVo, cell killing (cytotoxic effect)): 1.42 µM
IC (TGI) (LoVo; LoVo, total growth inhibition (cytostatic effect)): 0.418 µM
GI50 (HT-29; HT-29, HT-29): 2.97 µM
CC50 (HT-29; HT-29, HT-29, cell killing (cytotoxic effect)): 10.5 µM
IC (TGI) (HT-29; HT-29, HT-29, total growth inhibition (cytostatic effect)): 10.5 µM
